Assay results taken from patent EP4682145A1, “BENZOHETEROCYCLIC COMPOUND, AND PREPARATION METHOD THEREFOR AND USE THEREOF” (Cascade Pharmaceuticals, Inc., priority 2023, dated 2024).

These molecules were tested against T1, human FFAR1 (GPR40) (Homo sapiens, UniProt O14842) (assay: NFAT-RE-based reporter gene activity assay (Dual-Glo luciferase) for GPR40 agonistic activity in co-transfected HEK293T cells). Settings: 4-hour treatment.
T1 construct: Flag; expressed in transfected cells; host or cells: HEK293T
Assay type: cell-based
How it was run: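 Agonism read as NFAT-RE-driven firefly luciferase over Renilla control (Dual-Glo) after 4 h compound exposure, top concentration 1 µM, 10 half-log steps.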

T1 sequence (O14842 whole entry): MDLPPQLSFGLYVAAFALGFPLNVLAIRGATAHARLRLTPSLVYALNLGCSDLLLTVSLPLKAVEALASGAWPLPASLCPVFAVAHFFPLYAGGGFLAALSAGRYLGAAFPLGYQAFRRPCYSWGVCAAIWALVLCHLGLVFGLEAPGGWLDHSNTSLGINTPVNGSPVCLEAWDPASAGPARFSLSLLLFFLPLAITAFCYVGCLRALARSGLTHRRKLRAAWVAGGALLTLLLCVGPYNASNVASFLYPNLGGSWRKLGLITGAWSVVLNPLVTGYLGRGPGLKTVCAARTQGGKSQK

Row | Compound | EC50 [nM]
1 | O=C(O)C[C@H](c1ccc2c(C(=O)Nc3cc(F)ccc3Cl)c(C3CCN(c4ccc5c(c4)OCO5)CC3)oc2c1)C1CC1 [Compound 333] | ≤ 10
2 | O=C(O)C[C@H](c1ccc2c(C(=O)Nc3cc(F)ccc3Br)c(C3CCN(c4ccc5c(c4)OCO5)CC3)oc2c1)C1CC1 [Compound 334] | ≤ 10
3 | O=C(O)C[C@H](c1ccc2c(C(=O)Nc3cc(C(F)(F)F)ccc3Cl)c(C3CCN(c4ccc5c(c4)OCO5)CC3)oc2c1)C1CC1 [Compound 335] | ≤ 10
4 | CCc1ccc(Cl)c(NC(=O)c2c(C3CCN(c4ccc5c(c4)OCO5)CC3)oc3cc([C@@H](CC(=O)O)C4CC4)ccc23)c1 [Compound 337] | ≤ 10
5 | COc1ccc(F)c(N2CCC(c3oc4cc([C@@H](CC(=O)O)C5CC5)ccc4c3C(=O)Nc3cc(Cl)ccc3F)CC2)c1 [Compound 338] | 10 to 100
6 | CCc1ccc(Cl)c(NC(=O)c2c(C3CCN(c4cc(OC)ccc4F)CC3)oc3cc([C@@H](CC(=O)O)C4CC4)ccc23)c1 [Compound 339] | ≤ 10
7 | COc1ccc(F)c(N2CCC(c3oc4cc([C@@H](CC(=O)O)C5CC5)ccc4c3C(=O)Nc3cc(C(F)(F)F)ccc3Cl)CC2)c1 [Compound 340] | < 10
8 | COc1ccc(F)c(N2CCC(c3oc4cc([C@@H](CC(=O)O)C5CC5)ccc4c3C(=O)Nc3cc(F)ccc3Cl)CC2)c1 [Compound 341] | ≤ 10
9 | COc1ccc(F)c(N2CCC(c3oc4cc([C@@H](CC(=O)O)C5CC5)ccc4c3C(=O)Nc3cc(F)ccc3Br)CC2)c1 [Compound 342] | ≤ 10
10 | COc1ccc(F)c(N2CCC(c3oc4cc([C@@H](CC(=O)O)C5CC5)ccc4c3C(=O)Nc3cc(C)ccc3Cl)CC2)c1 [Compound 343] | ≤ 10
11 | COc1cccc(N2CCC(c3oc4cc(C(CC(=O)O)C5CC5)ccc4c3C(=O)NC3CCCCC3)CC2)c1 (stereo not drawn) [Compound 344] | 100 to 500
12 | COc1cccc(N2CCC(c3oc4cc(C(CC(=O)O)C5CC5)ccc4c3C(=O)NC34CC(C3)C4)CC2)c1 (stereo not drawn) [Compound 345] | 100 to 500
13 | COc1cccc(N2CCC(c3oc4cc(C(CC(=O)O)C5CC5)ccc4c3C(=O)NC3CCC(C)(C)CC3)CC2)c1 (stereo not drawn) [Compound 348] | 100 to 500
14 | COc1cccc(N2CCC(c3oc4cc(C(CC(=O)O)C5CC5)ccc4c3C(=O)NC34CC5CC(CC(C5)C3)C4)CC2)c1 (stereo not drawn) [Compound 349] | 100 to 500
15 | COc1cccc(N2CCC(c3oc4cc(C(CC(=O)O)C5CC5)ccc4c3C(=O)NC34CC5CC(C)(CC(C)(C5)C3)C4)CC2)c1 (stereo not drawn) [Compound 351] | 10 to 100
16 | COc1cccc(N2CCC(c3oc4cc(C(CC(=O)O)C5CC5)ccc4c3C(=O)NC3C4CC5CC(C4)CC3C5)CC2)c1 (stereo not drawn) [Compound 352] | 10 to 100
17 | COc1cccc(N2CCC(c3oc4cc(C(CC(=O)O)C5CC5)ccc4c3C(=O)NC34CC5CC(CC(C)(C5)C3)C4)CC2)c1 (stereo not drawn) [Compound 353] | 100 to 500
18 | COc1cccc(N2CCC(c3oc4cc([C@@H](CC(=O)O)C5CC5)ccc4c3C(=O)NC34CC5CC(C)(CC(C)(C5)C3)C4)CC2)c1 [Compound 354] | 100 to 500
19 | COc1cccc(N2CCC(c3oc4cc(C(CC(=O)O)C5CC5)ccc4c3C(=O)NCc3ccccc3)CC2)c1 (stereo not drawn) [Compound 355] | 100 to 500
20 | COc1cccc(N2CCC(c3oc4cc(C(CC(=O)O)C5CC5)ccc4c3C(=O)N3CCCC3)CC2)c1 (stereo not drawn) [Compound 358] | 100 to 500
21 | COc1cccc(N2CCC(c3oc4cc(C(CC(=O)O)C5CC5)ccc4c3C(=O)N3CCCC3C)CC2)c1 (stereo not drawn) [Compound 359] | 100 to 500
22 | COc1cccc(N2CCC(c3oc4cc(C(CC(=O)O)C5CC5)ccc4c3C(=O)N3CC4(CCC4)C3)CC2)c1 (stereo not drawn) [Compound 360] | > 500
23 | COc1cccc(N2CCC(c3oc4cc([C@@H](CC(=O)O)C5CC5)ccc4c3/C=C/C(C)(C)C)CC2)c1 [Compound 361] | 10 to 100
24 | COc1cccc(N2CCC(c3oc4cc(C(CC(=O)O)C5CC5)ccc4c3/C=C/C3CC3)CC2)c1 (stereo not drawn) [Compound 364] | 100 to 500

Same assay, conditions: 4-hour treatment, class symbols

Row | Compound | Efficacy (%)
25 | O=C(O)C[C@H](c1ccc2c(C(=O)Nc3cc(F)ccc3Cl)c(C3CCN(c4ccc5c(c4)OCO5)CC3)oc2c1)C1CC1 [Compound 333] | †† (150 ≥ Efficacy (%) > 100)
26 | O=C(O)C[C@H](c1ccc2c(C(=O)Nc3cc(F)ccc3Br)c(C3CCN(c4ccc5c(c4)OCO5)CC3)oc2c1)C1CC1 [Compound 334] | †† (150 ≥ Efficacy (%) > 100)
27 | O=C(O)C[C@H](c1ccc2c(C(=O)Nc3cc(C(F)(F)F)ccc3Cl)c(C3CCN(c4ccc5c(c4)OCO5)CC3)oc2c1)C1CC1 [Compound 335] | †† (150 ≥ Efficacy (%) > 100)
28 | CCc1ccc(Cl)c(NC(=O)c2c(C3CCN(c4ccc5c(c4)OCO5)CC3)oc3cc([C@@H](CC(=O)O)C4CC4)ccc23)c1 [Compound 337] | †† (150 ≥ Efficacy (%) > 100)
29 | COc1ccc(F)c(N2CCC(c3oc4cc([C@@H](CC(=O)O)C5CC5)ccc4c3C(=O)Nc3cc(Cl)ccc3F)CC2)c1 [Compound 338] | †† (150 ≥ Efficacy (%) > 100)
30 | CCc1ccc(Cl)c(NC(=O)c2c(C3CCN(c4cc(OC)ccc4F)CC3)oc3cc([C@@H](CC(=O)O)C4CC4)ccc23)c1 [Compound 339] | †† (150 ≥ Efficacy (%) > 100)
31 | COc1ccc(F)c(N2CCC(c3oc4cc([C@@H](CC(=O)O)C5CC5)ccc4c3C(=O)Nc3cc(C(F)(F)F)ccc3Cl)CC2)c1 [Compound 340] | ††† (Efficacy (%) > 150)
32 | COc1ccc(F)c(N2CCC(c3oc4cc([C@@H](CC(=O)O)C5CC5)ccc4c3C(=O)Nc3cc(F)ccc3Cl)CC2)c1 [Compound 341] | †† (150 ≥ Efficacy (%) > 100)
33 | COc1ccc(F)c(N2CCC(c3oc4cc([C@@H](CC(=O)O)C5CC5)ccc4c3C(=O)Nc3cc(F)ccc3Br)CC2)c1 [Compound 342] | †† (150 ≥ Efficacy (%) > 100)
34 | COc1ccc(F)c(N2CCC(c3oc4cc([C@@H](CC(=O)O)C5CC5)ccc4c3C(=O)Nc3cc(C)ccc3Cl)CC2)c1 [Compound 343] | ††† (Efficacy (%) > 150)
35 | COc1cccc(N2CCC(c3oc4cc(C(CC(=O)O)C5CC5)ccc4c3C(=O)NC3CCCCC3)CC2)c1 (stereo not drawn) [Compound 344] | †† (150 ≥ Efficacy (%) > 100)
36 | COc1cccc(N2CCC(c3oc4cc(C(CC(=O)O)C5CC5)ccc4c3C(=O)NC34CC(C3)C4)CC2)c1 (stereo not drawn) [Compound 345] | †† (150 ≥ Efficacy (%) > 100)
37 | COc1cccc(N2CCC(c3oc4cc(C(CC(=O)O)C5CC5)ccc4c3C(=O)NC3CCC(C)(C)CC3)CC2)c1 (stereo not drawn) [Compound 348] | †† (150 ≥ Efficacy (%) > 100)
38 | COc1cccc(N2CCC(c3oc4cc(C(CC(=O)O)C5CC5)ccc4c3C(=O)NC34CC5CC(CC(C5)C3)C4)CC2)c1 (stereo not drawn) [Compound 349] | †† (150 ≥ Efficacy (%) > 100)
39 | COc1cccc(N2CCC(c3oc4cc(C(CC(=O)O)C5CC5)ccc4c3C(=O)NC34CC5CC(C)(CC(C)(C5)C3)C4)CC2)c1 (stereo not drawn) [Compound 351] | †† (150 ≥ Efficacy (%) > 100)
40 | COc1cccc(N2CCC(c3oc4cc(C(CC(=O)O)C5CC5)ccc4c3C(=O)NC3C4CC5CC(C4)CC3C5)CC2)c1 (stereo not drawn) [Compound 352] | †† (150 ≥ Efficacy (%) > 100)
41 | COc1cccc(N2CCC(c3oc4cc(C(CC(=O)O)C5CC5)ccc4c3C(=O)NC34CC5CC(CC(C)(C5)C3)C4)CC2)c1 (stereo not drawn) [Compound 353] | ††† (Efficacy (%) > 150)
42 | COc1cccc(N2CCC(c3oc4cc([C@@H](CC(=O)O)C5CC5)ccc4c3C(=O)NC34CC5CC(C)(CC(C)(C5)C3)C4)CC2)c1 [Compound 354] | †† (150 ≥ Efficacy (%) > 100)
43 | COc1cccc(N2CCC(c3oc4cc(C(CC(=O)O)C5CC5)ccc4c3C(=O)NCc3ccccc3)CC2)c1 (stereo not drawn) [Compound 355] | †† (150 ≥ Efficacy (%) > 100)
44 | COc1cccc(N2CCC(c3oc4cc(C(CC(=O)O)C5CC5)ccc4c3C(=O)N3CCCC3)CC2)c1 (stereo not drawn) [Compound 358] | † (100 ≥ Efficacy (%) > 50)
45 | COc1cccc(N2CCC(c3oc4cc(C(CC(=O)O)C5CC5)ccc4c3C(=O)N3CCCC3C)CC2)c1 (stereo not drawn) [Compound 359] | † (100 ≥ Efficacy (%) > 50)
46 | COc1cccc(N2CCC(c3oc4cc(C(CC(=O)O)C5CC5)ccc4c3C(=O)N3CC4(CCC4)C3)CC2)c1 (stereo not drawn) [Compound 360] | ††† (Efficacy (%) > 150)
47 | COc1cccc(N2CCC(c3oc4cc([C@@H](CC(=O)O)C5CC5)ccc4c3/C=C/C(C)(C)C)CC2)c1 [Compound 361] | †† (150 ≥ Efficacy (%) > 100)
48 | COc1cccc(N2CCC(c3oc4cc(C(CC(=O)O)C5CC5)ccc4c3/C=C/C3CC3)CC2)c1 (stereo not drawn) [Compound 364] | †† (150 ≥ Efficacy (%) > 100)
